Source: patent US10280174B2, “Salt of fused pyrimidine compound and crystal thereof” (TAIHO PHARMACEUTICAL CO., LTD., priority 2015, dated 2019)

Legend:
[1] = Moisture absorption/desorption test; assay type: physicochemical; conditions: for Weight change ratio, Adsorption / Weight change ratio, Desorption: 25° C.; for characteristic of channel hydrate: absorb/desorb moisture depending on humidity; for weight change at a maximum: humidified at a relative humidity of from 5 to 95%
Protocol: Moisture absorption/desorption test was carried out with respect to Compound A, monofumarate of Compound A, hemifumarate of Compound A, hemitartrate of Compound A and monophosphate of Compound A, to research the presence or absence of the characteristic of channel hydrate.
In the moisture absorption/desorption test, measurements were carried out according to the following conditions.
A dedicated quartz holder was filled with about from 5 to 10 mg of sample, and a weight of the sample at each humidity was measured and recorded in a continuous manner under the following conditions. Handling of the devices including data processing was based on the method and the process indicated in each device.
Device: VTI SA+ (manufactured by TA Instruments Inc.)
Drying temperature: 60° C.
Temperature rising speed: 1° C./min.
Equilibrium in drying: It is confirmed that no reduction of 0.01 wt % occurs in 5 minutes, in a range not exceeding 300 minutes.
Temperature for measurement: 25° C.
Equilibrium in humidification: It is confirmed that no increase of 0.01 wt % occurs in 5 minutes, in a range not exceeding 120 minutes.
Relative humidity program: Raised by 5% RH from 5% RH to 95% RH, and lowered by 5% RH from 95% RH to 5% RH.

[2] = Solid stability test (acceleration test), 40° C./75% RH; assay type: physicochemical
Protocol: Solid stability was measured under the following conditions, with respect to monofumarate of Compound A, hemifumarate of Compound A, hemitartrate of Compound A and monophosphate of Compound A which were obtained in the Examples and the Reference Examples, when they were stored for 2 weeks or 4 weeks at 40° C./75% RH (sealed condition and opened condition).
Storage condition: 40° C./75% RH (Sealed and Opened) (Opened refers to a condition where a glass container has the lid removed, and is covered with a KimWipe).
Points of measurement: 2 weeks and 4 weeks
(§1) Storage amount: About 30 mg
(§2) Storage container: Brown glass container
(§3) Method of preparing sample solution: Sample was dissolved in 50% acetonitrile such that a concentration of the sample would be 0.4 mg/mL.
Mass of analogous substance in the sample solution was measured by HPLC analysis. Handling of the devices including data processing was based on the method and the process indicated in each device. (Device: Shimadzu Corporation SIL-HTc/LC-20AB)
Column: InertSustein C18, 4.6×150 mm, 3 μm, manufactured by GL Sciences Inc.
MS detection: ESI positive
Column temperature: 40° C.
Column flow rate: 1.0 mL/min
Mobile phase: A; 10 mmol/L phosphate buffer (pH 6.0): Acetonitrile mixed solution (17:3), B; Acetonitrile
Amount of injection: 5 μL
In the Table, A, B and C refer to percentages of the total mass of analogous substance of less than 0.1%, 0.1% or more and less than 0.5%, and 0.5% or more, respectively. Incidentally, those marked with * were measured at 2 weeks' time and the others were measured at 4 weeks' time.

[3] = Blood concentration measurement test after oral administration; conditions: mice
Protocol: (§4) These administration solutions were orally administered to mice (Balb/cA) which had been bred under a feeding condition, at a dose of 10 mL per 1 kg body weight, with a sonde for oral administration. After the administration, the mice were returned to a cage for mice and conditions were checked. Inside the cage was provided with a condition where water and food were accessible ad libitum. After 0.25, 0.5, 1, 2, 4 and 6 hours from the administration, the mice were anesthetized with isoflurane, and 60 μL of blood was collected from orbital sinus with a capillary blood collection tube.
(§5) The collected blood was ice cooled, and blood plasma was separated by a centrifugal operation. The mice after the blood collection was returned to an animal breeding cage, and conditions after recovery from the anesthesia were checked. When the last blood collection was finished, the mice were euthanized by cervical dislocation, after a level check of isoflurane anesthesia.
(§6) AUC0-6 hr, Cmax and Tmax were calculated by linear-log trapezoid method with Phoenix WinNonlin (v6.3.0) which is a software manufactured by Pharsight Corporation, from a concentration of Compound A in each blood plasma measured by MRM method with LC-MS/MS.

in vivo = conditions: Balb/cA, mouse, po, 50 mg/kg
Protocol: as §4, §5, §6

[4] = Solid stability test (severe test), 60° C.; assay type: physicochemical; conditions: 60° C. (Sealed)
Protocol: Solid stability was measured under the following conditions, with respect to monofumarate of Compound A, hemitartrate of Compound A and monophosphate of Compound A which were obtained in the Examples and the Reference Examples, when they were stored for 2 weeks or 4 weeks at 60° C.
Storage condition: 60° C. (Sealed)
Point of measurement: 2 weeks and 4 weeks
as §1, §2, §3
In the Table, A and B refer to percentages of the total mass of analogous substance of less than 0.1%, and 0.1% or more and less than 0.5%, respectively. Incidentally, the value marked with * was measured at 2 weeks and the others were measured at 4 weeks.

[5] = Research of base addition salts of Compound A (solubility observation); assay type: physicochemical; conditions: water / organic solvent, in words
Protocol: A research was carried out on salt formation with sodium and magnesium, among inorganic bases. Specifically, Compound A was dissolved in an appropriate solvent, and each kind of the bases was added thereto (from 0.5 to 1.5 equivalent), and stirring was carried out for overnight, to thereby determine whether or not a salt formation occurred. As a result, in salt formation with sodium, decomposition remarkably proceeded, and therefore, the research was suspended. From the case of magnesium, hemi magnesium salt of Compound A was obtained (Reference Example 6).

[6] = system: mouse collagen-induced arthritis model; assay: Mice collagen-induced arthritis model; assay type: in vivo, DBA/1 mice; conditions: 3 mg/kg, positive control, 17 days; FIG. 11
Protocol: The test was carried out in accordance with the method described in Non-Patent Literature (Brand D D, et al., Nat Protoc. 2007; 2, 1269-1275, Xu D. et al., JPET, 2012 April; 341 (1):90-103). Seven-week-old male/DBA/1 mice (CHARLES RIVER LABORATORIES JAPAN, INC.) were intracutaneously injected in the dorsum with 100 μL/body of an equal amount-mixed solution (emulsion) of 4 mg/mL of bovine type 2 collagen solution (Collagen Research Center) and Complete Freund's Adjuvant (DIFCO Inc.) (initial immunization). After 21 days therefrom, the mice were intracutaneously injected in the chine with 100 μL/body of an equal amount-mixed solution (emulsion) of 4 mg/mL of bovine type 2 collagen solution (Collagen Research Center) and Complete Freund's Adjuvant (DIFCO) to provide an additional immunization. The oral administration of 1 time per day was continued for 17 days setting the administration initiation day (day 0) as the eighth day from the additional immunization. Symptoms of arthritis in day 0, day 3, day 7, day 10, day 14 and day 17 were scored macroscopically (0: No change, 1: Swelling of a finger, 2: Swelling of two fingers or more, 3: Swelling of instep, 4: Swelling of all fingers extending wrist/ankle), and a total in four limbs was obtained as a point of individual body (maximum 16 points).

[7] = 50 mg/kg in terms of Compound A, 0.5% HPMC suspension, plasma Compound A

C=CC(=O)N1CCC[C@@H](n2nc(C(=O)Nc3nc4ccccc4o3)c3c(N)ncnc32)C1.C=CC(=O)N1CCC[C@@H](n2nc(C(=O)Nc3nc4ccccc4o3)c3c(N)ncnc32)C1.O=C(O)/C=C/C(=O)O [hemifumarate of Compound A, (R)-1-(1-acryloylpiperidin-3-yl)-4-amino-N-(benzo[d]oxazol-2-yl)-1H-pyrazolo[3,4-d]pyrimidine-3-carboxamide.hemifumarate]
Weight change ratio, Adsorption ([1]; relative humidity 5%): 0.00% | Weight change ratio, Desorption ([1]; relative humidity 5%): 0.04% | Weight change ratio, Adsorption ([1]; relative humidity 20%): 0.07% | Weight change ratio, Desorption ([1]; relative humidity 20%): 0.11% | Weight change ratio, Adsorption ([1]; relative humidity 40%): 0.16% | Weight change ratio, Desorption ([1]; relative humidity 40%): 0.23% | Weight change ratio, Adsorption ([1]; relative humidity 60%): 0.28% | Weight change ratio, Desorption ([1]; relative humidity 60%): 0.40% | Weight change ratio, Adsorption ([1]; relative humidity 80%): 0.42% | Weight change ratio, Desorption ([1]; relative humidity 80%): 0.54% | Weight change ratio, Adsorption ([1]; relative humidity 95%): 0.81% | Weight change ratio, Desorption ([1]; relative humidity 95%): 0.81% | mass change (increase) ([1]; relative humidity of 95%): less than 1% | total mass of analogous substance ([2]; Opened, 4 weeks): A (less than 0.1%) | total mass of analogous substance ([2]; Sealed, 4 weeks): A (less than 0.1%) | solid stability (in words) ([2]; compared to hemitartrate or monophosphate): excellent solid stabilities | AUC0-6 hr relative to that of Compound A ([3]; 50 mg/kg): about two fold | Cmax relative to that of Compound A ([3]; 50 mg/kg): equivalent to that of Compound A | AUC0-6 hr [3, 7]: 10.32 µM·h | Cmax [3, 7]: 4.22 µM | Tmax [3, 7]: 30 min

C=CC(=O)N1CCC[C@@H](n2nc(C(=O)Nc3nc4ccccc4o3)c3c(N)ncnc32)C1 [Compound A, (R)-1-(1-acryloylpiperidin-3-yl)-4-amino-N-(benzo[d]oxazol-2-yl)-1H-pyrazolo[3,4-d]pyrimidine-3-carboxamide]
AUC(0-t) (in vivo): 5.45 µM·h | Cmax (in vivo): 3.98 µM | Tmax (in vivo): 15 min | characteristic of channel hydrate [1]: had the characteristic of channel hydrate | weight change at a maximum [1]: about 4.4% | Weight change ratio, Adsorption ([1]; relative humidity 5%): 0.42% | Weight change ratio, Desorption ([1]; relative humidity 5%): 0.67% | Weight change ratio, Adsorption ([1]; relative humidity 20%): 3.08% | Weight change ratio, Desorption ([1]; relative humidity 20%): 3.20% | Weight change ratio, Adsorption ([1]; relative humidity 40%): 3.60% | Weight change ratio, Desorption ([1]; relative humidity 40%): 3.65% | Weight change ratio, Adsorption ([1]; relative humidity 60%): 3.88% | Weight change ratio, Desorption ([1]; relative humidity 60%): 3.88% | Weight change ratio, Adsorption ([1]; relative humidity 80%): 4.09% | Weight change ratio, Desorption ([1]; relative humidity 80%): 4.11% | Weight change ratio, Adsorption ([1]; relative humidity 95%): 4.39% | Weight change ratio, Desorption ([1]; relative humidity 95%): 4.39%

C=CC(=O)N1CCC[C@@H](n2nc(C(=O)Nc3nc4ccccc4o3)c3c(N)ncnc32)C1.O=P(O)(O)O [monophosphate of Compound A, (R)-1-(1-acryloylpiperidin-3-yl)-4-amino-N-(benzo[d]oxazol-2-yl)-1H-pyrazolo[3,4-d]pyrimidine-3-carboxamide.monophosphate]
crystal form after the moisture absorption/desorption test [1]: did not maintain the original crystal form | Weight change ratio, Adsorption ([1]; relative humidity 5%): 0.01% | Weight change ratio, Desorption ([1]; relative humidity 5%): 5.76% | Weight change ratio, Adsorption ([1]; relative humidity 20%): 0.19% | Weight change ratio, Desorption ([1]; relative humidity 20%): 8.06% | Weight change ratio, Adsorption ([1]; relative humidity 40%): 0.36% | Weight change ratio, Desorption ([1]; relative humidity 40%): 9.29% | Weight change ratio, Adsorption ([1]; relative humidity 60%): 0.61% | Weight change ratio, Desorption ([1]; relative humidity 60%): 10.38% | Weight change ratio, Adsorption ([1]; relative humidity 80%): 1.29% | Weight change ratio, Desorption ([1]; relative humidity 80%): 12.12% | Weight change ratio, Adsorption ([1]; relative humidity 95%): 17.90% | Weight change ratio, Desorption ([1]; relative humidity 95%): 17.90% | total mass of analogous substance ([2]; Opened, 2 weeks (marked *)): C* (0.5% or more) | total mass of analogous substance ([2]; Sealed, 2 weeks (marked *)): C* (0.5% or more) | total mass of analogous substance ([4]; 2 weeks (marked *)): B* (0.1% or more and less than 0.5%)

C=CC(=O)N1CCC[C@@H](n2nc(C(=O)Nc3nc4ccccc4o3)c3c(N)ncnc32)C1.C=CC(=O)N1CCC[C@@H](n2nc(C(=O)Nc3nc4ccccc4o3)c3c(N)ncnc32)C1.O=C(O)C(O)C(O)C(=O)O [hemitartrate of Compound A, (R)-1-(1-acryloylpiperidin-3-yl)-4-amino-N-(benzo[d]oxazol-2-yl)-1H-pyrazolo[3,4-d]pyrimidine-3-carboxamide.hemi-L-(+)-tartrate]
characteristic of channel hydrate [1]: had the characteristic of channel hydrate | weight change at a maximum [1]: about 3.3% | Weight change ratio, Adsorption ([1]; relative humidity 5%): 0.01% | Weight change ratio, Desorption ([1]; relative humidity 5%): −0.28% | Weight change ratio, Adsorption ([1]; relative humidity 20%): 1.25% | Weight change ratio, Desorption ([1]; relative humidity 20%): 1.17% | Weight change ratio, Adsorption ([1]; relative humidity 40%): 1.56% | Weight change ratio, Desorption ([1]; relative humidity 40%): 1.32% | Weight change ratio, Adsorption ([1]; relative humidity 60%): 1.67% | Weight change ratio, Desorption ([1]; relative humidity 60%): 1.45% | Weight change ratio, Adsorption ([1]; relative humidity 80%): 1.64% | Weight change ratio, Desorption ([1]; relative humidity 80%): 1.72% | Weight change ratio, Adsorption ([1]; relative humidity 95%): 3.31% | Weight change ratio, Desorption ([1]; relative humidity 95%): 3.31% | total mass of analogous substance ([2]; Opened, 4 weeks): B (0.1% or more and less than 0.5%) | total mass of analogous substance ([2]; Sealed, 4 weeks): B (0.1% or more and less than 0.5%) | total mass of analogous substance ([4]; 4 weeks): B (0.1% or more and less than 0.5%)

C=CC(=O)N1CCC[C@@H](n2nc(C(=O)Nc3nc4ccccc4o3)c3c(N)ncnc32)C1.C=CC(=O)N1CCC[C@@H](n2nc(C(=O)Nc3nc4ccccc4o3)c3c(N)ncnc32)C1.[Mg] [hemi magnesium salt of Compound A, (R)-1-(1-acryloylpiperidin-3-yl)-4-amino-N-(benzo[d]oxazol-2-yl)-1H-pyrazolo[3,4-d]pyrimidine-3-carboxamide.hemi magnesium salt]
solubility [5]: low solubility to water and to an organic solvent

C[C@]12C=CC(=O)C=C1CC[C@@H]1[C@@H]2[C@@H](O)C[C@@]2(C)[C@H]1CC[C@]2(O)C(=O)CO [prednisolone, reference compound]
arthritis score [6]: only in a degree of maintaining the raised arthritis score
